Experimental data as given in patent US20110182992A1, “PEPTIDES AND PEPTIDE MIMETICS TO TREAT PATHOLOGIES ASSOCIATED WITH EYE DISEASE” (priority 2008, published 2011).
Blank lines part the entries; values can stand above or below the compound they belong to.

Legend:
ApoE null mice [1] = experiment: HDL function after D-4F and/or statin in the drinking water; format: in vivo, mouse; conditions: 0.05 mg/ml in the drinking water for 24 hours
C57Bl/6J-apoE null mice = experiment: Intravitreal L-4F: electron microscopy of Bruch's membrane of aged C57Bl/6J-apoE null mice; format: in vivo, mouse
Excerpt: In every other RPE cell big lipid vacuoles (asterisks) are found, a sign of stress and beginning degeneration. PR: photo receptors; CC: choriocapillaris: EC: vascular endothelial cell of the choriocapillaris.
The membrane is slightly thickened with multiple translucent lipid vacuoles. A few are marked with asterisks. EC: vascular endothelial cell of choriocapillaris.
An effective clearance of this lipid debris via an ApoA-I mimetic peptide (L-4F) could prevent early AMD-like degeneration.
L-4F was injected directly into the vitreous cavity of right eyes of 10 eight month old C57Bl/6J-apoE null mice. A single dose of 3 μl was injected with a L-4F concentration of 400 μg/ml. All left eyes were untreated throughout the study and thus be served as controls. The animals were then sacrificed 21 days after the injection and the eyes were immediately enucleated and fixed. Eyes then were processed for electron microscopy (EM).

[2] = tested on: mice fed an atherogenic diet; conditions: 20 μg daily injected; cited from earlier work
[3] = tested on: human aortic endothelial cells; experiment: Prevention of LDL-induced monocyte chemotactic activity, co-incubation; format: cell-based; conditions: co-incubation with control human LDL 200 μg protein/ml, overnight
ApoE null mice [4] = experiment: Protection against PAPC oxidation by HPODE and induction of monocyte chemotactic activity by HDL from apo E null mice given oral peptides; format: in vivo, mouse; conditions: added to the drinking water, 24 hrs; murine HDL 100 μg cholesterol/ml
Protocol: (§1) The values are the mean±SD of the number of migrated monocytes in 9 high power fields from each of quadruple assay wells. Asterisks indicate significant difference (p<0.05) as compared to No Peptide mHDL.
After 24 hrs blood was collected, plasma fractionated by FPLC and fractions containing HDL (designated as mHDL) were pooled and HDL protective capacity against PAPC oxidation as determined by the induction of monocyte chemotactic activity was determined. For the assay controls the culture wells received no lipoproteins (no additions), the phospholipid PAPC at 20µg/ml+HPODE, at 1.0 μg/ml, or PAPC+HPODE plus standard normal human HDL (at 350 μg HDL cholesterol/ml and designated as +Cont. h HDL).
For testing the murine HDL, PAPC+HPODE together with murine HDL (+F mHDL or +J mHDL) were added to artery wall cell cultures. […] The murine HDL was used at 100 μg cholesterol/ml.

ApoE null mice [5] = experiment: Protection against LDL-induced monocyte chemotactic activity by HDL from apo E null mice given oral peptides; format: in vivo, mouse
Excerpt: as §1, with “FIG. 4 illustrates protection against LDL-induced monocyte chemotactic activity by HDL from apo E null mice given oral peptides. The” for “The”
After 24 hrs blood was collected, plasma fractionated by FPLC and fractions containing LDL (designated as mLDL for murine LDL) and fractions containing HDL (designated as mHDL) were separately pooled and HDL protective capacity against LDL oxidation as determined by LDL-induced monocyte chemotactic activity was determined. For the assay controls the culture wells received no lipoproteins (no additions), mLDL alone (at 200 μg cholesterol/ml), or mLDL+ standard normal human HDL (designated as Cont. h HDL, at 350 μg HDL cholesterol/ml).
For testing the murine HDL, mLDL together with murine HDL (+F mHDL or +J mHDL) were added to artery wall cell cultures. […] The murine HDL was used at 100µg cholesterol/ml.

ApoE null mice [6] = experiment: Ability of LDL from apoE null mice given oral peptides to induce monocyte chemotactic activity (LDL susceptibility to oxidation); format: in vivo, mouse; conditions: added to the drinking water, 24 hrs
Excerpt: as §1, with “FIG. 5 illustrates the effect of oral apo A-1 peptide mimetic and apoJ peptide on LDL susceptibility to oxidation. The” for “The”, “LDL.” for “mHDL.”
FIG. 5 illustrates the effect of oral apo A-1 peptide mimetic and apoJ peptide on LDL susceptibility to oxidation. […] After 24 hrs blood was collected from the mice shown in FIG. 4, plasma fractionated by FPLC and fractions containing LDL (designated as mLDL for murine LDL) were pooled and LDL susceptibility to oxidation as determined by induction of monocyte chemotactic activity was determined. For the assay controls the culture wells received no lipoproteins (no additions), mLDL alone (at 200 μg cholesterol/ml), or mLDL+ standard normal human HDL (designated as Cont. h HDL, 350 μg HDL cholesterol).
Murine LDL, mLDL, from mice that received the D-4F (F mLDL) or those that received the apoJ peptide (J mLDL) were added to artery wall cell cultures.

LDL receptor null mice = experiment: HDL protective capacity in LDL receptor null mice given peptide in drinking water; format: in vivo; conditions: 0.25 or 0.5 mg per ml of drinking water, 24 or 48 hrs, mouse HDL at 100 μg/ml
Protocol: FIG. 3 illustrates the effect of apo J peptide mimetics on HDL protective capacity in LDL receptor null mice. The values are the mean±SD of the number of migrated monocytes in 9 high power fields from each of quadruple assay wells.
D-4F designated as F, or the apoJ peptide made from D amino acids (D-J336, designated as J) was added to the drinking water of LDL receptor null mice (4 per group) at 0.25 or 0.5 mg per ml of drinking water. After 24- or 48-hrs blood was collected from the mice and their HDL was isolated and tested for its ability to protect against LDL-induced monocyte chemotactic activity. Assay controls included culture wells that received no lipoproteins (no addition), or control human LDL alone (designated as LDL, 200µg cholesterol/ml), or control LDL+ control human HDL (designated as +HDL, 350µg HDL cholesterol). For testing the mouse HDL, the control LDL was added together with mouse HDL (+F HDL or +J HDL) to artery wall cell cultures. The mouse HDL was added at 100 μg cholesterol/ml respectively.

[7] = tested on: human aortic endothelial cells; experiment: Prevention of LDL-induced monocyte chemotactic activity by pre-treatment of artery wall cells; format: cell-based; conditions: 6 hrs pre-incubation with peptide, wash, then control human LDL 200 μg protein/ml overnight
Protocol: FIG. 2 illustrates the prevention of LDL-induced monocyte chemotactic activity by pre-treatment of artery wall cells with D-J336 as compared to D-4F. The data are mean±SD of the number of migrated monocytes in nine high power fields in quadruple cultures.
FIG. 2 illustrates a comparison of the effect of D-4F with the effect of D-J336 on the prevention of LDL induced monocyte chemotactic activity in a pre-incubation. Human aortic endothelial cells were pre-incubated with D-J336 or D-4F at 4, 2, and 1µg/ml for DJ336 or 100, 50, 25, and 12.5 μg/ml for D-4F for 6 hrs. The cultures were then washed and were incubated with medium alone (no addition), or with control human LDL (200 μg protein/ml), or with control human LDL+ control human HDL (350 μg HDL protein/ml) as assay controls. The wells that were pre-treated with peptides received the control human LDL at 200 μg protein/ml. Following overnight incubation, the supernatants were assayed for monocyte chemotactic activity.

PON1 = conditions: added to the drinking water, 24 hrs
[8] = Association with pre-beta HDL / HDL and clearance from the circulation after an oral dose; conditions: mouse, in vivo
human volunteers = experiment: LDL isolated after infusion of apo A-I into humans: oxidation by human artery wall cells; format: in vivo
Excerpt: (§2) We discovered that normal HDL inhibits three steps in the formation of mildly oxidized LDL. […] These seeding molecules were required for cocultures of human artery wall cells to be able to oxidize LDL and for the LDL to induce the artery wall cells to produce monocyte chemotactic activity.

human LDL = experiment: Treating human LDL in vitro: removal of seeding molecules
Excerpt: as §2

mice = experiment: LDL isolated after injection of apo A-I into mice: oxidation by human artery wall cells; format: in vivo, mouse
Excerpt: as §2

Compound: CC(C)c1c(C(=O)Nc2ccccc2)c(-c2ccccc2)c(-c2ccc(F)cc2)n1CC[C@@H](O)C[C@@H](O)CC(=O)O [atorvastatin, reference compound]
HDL function, statin alone (ApoE null mice [1]): did not improve HDL function

Compound: Ac-D-W-F-K-A-F-Y-D-K-V-A-E-K-F-K-E-A-F-NH2 (Ac-DWFKAFYDKVAEKFKEAF-NH2) [Peptide L-4F]
Bruch's membrane structure, electron microscopy of treated eyes (C57Bl/6J-apoE null mice; magnification 5,000×): regular and uniform Bruch's membrane structure
lipid droplets in RPE cells, electron microscopy of treated eyes (C57Bl/6J-apoE null mice; magnification 5,000×): none of the RPE cells showed lipid droplets
translucent lipid vacuoles in Bruch's membrane, electron microscopy of a treated eye (C57Bl/6J-apoE null mice; magnification 20,000×): no translucent lipid vacuoles shown
Bruch's membrane and RPE morphology and lipid content of treated eyes compared to untreated eyes (EM) (C57Bl/6J-apoE null mice; single intravitreal 3 μl of 400 μg/ml, 21 days, EM of 2 mice): significant improvement in Bruch's membrane and RPE morphology as well as lipid content

Compound: Ac-D-W-L-K-A-F-Y-D-K-V-F-E-K-F-K-E-F-F-NH2 (Ac-DWLKAFYDKVFEKFKEFF-NH2) [Peptide 5F]
LDL from PBS-injected mice compared with LDL from peptide-injected mice: oxidation and induction of monocyte chemotactic activity [2]: more readily oxidized and more readily induced monocyte chemotactic activity than LDL taken from mice fed the same diet but injected with 20µg daily of peptide 5F

Compound: Ac-LLEQLNEQFNWVSRLANLTQGE-NH2 [D-J336]
in vitro concentration that prevents LDL-induced monocyte chemotactic activity by human artery wall cells, relative to the concentration required for the D-4F peptide [3]: 10 to 25 times less
potency in causing HDL to inhibit oxidation of PAPC by HPODE in a human artery wall co-culture (monocyte chemotactic activity) (ApoE null mice [4]): as potent as D-4F
activity of murine HDL against LDL-induced monocyte chemotactic activity (ApoE null mice [5]; ApoE null mice, peptide in drinking water 24 hrs, murine HDL at 100 μg/ml): as active as 350µg/ml of normal human HDL
potency in enhancing HDL protective capacity in apo E null mice (ApoE null mice [5]; added to the drinking water, 24 hrs): as potent as D-4F
potency in rendering LDL from apo E null mice resistant to oxidation by human artery wall cells (induction of monocyte chemotactic activity) (ApoE null mice [6]): slightly more potent than D-4F
activity of mouse HDL in preventing control LDL from inducing artery wall cells to produce monocyte chemotactic activity (LDL receptor null mice): as active as 350 μg/ml of control human HDL
potency in preventing LDL oxidation by artery wall cells in vitro, compared with D-4F [7]: 10-25 times more potent
potency in increasing the paraoxonase activity of apo E null mice (PON1): at least as potent as D-4F

time it remains associated with the HDL fractions (pre-beta HDL, HDL) [8]: at least 36 hours
Compound: Ac-LVGRQLEEFL-NH2 [D-[113-122]apoJ]
association with pre-beta HDL and HDL [8]: slowly associates with pre-beta HDL and to a lesser extent with HDL

Compound: apo A-I: apolipoprotein A-I, the major protein of HDL
oxidation of LDL isolated after infusion, by human artery wall cells, and induction of monocyte chemotactic activity (human volunteers): resistant to oxidation by human artery wall cells and did not induce monocyte chemotactic activity
removal of seeding molecules from human LDL in vitro (human LDL): removed seeding molecules from the LDL that included HPODE and HPETE
oxidation of LDL isolated after injection, by human artery wall cells, and induction of monocyte chemotactic activity (mice): resistant to oxidation by human artery wall cells and did not induce monocyte chemotactic activity
